Laboratory results as given in PMC12680861, “Comparative analysis of LJ-4378 and tirzepatide in mouse models of obesity and weight regain” (Archives of Pharmacal Research, 2025).

Columns and labels:
[1] = Steady state tissue partition coefficient after I.V. infusion; type: in vivo, SD rats
Protocol: In this study, steady state tissue partition coefficients ( KP,T , i.e., the ratio of tissue to plasma concentrations in steady state) Eq. (1) were determined for LJ-4378 in SD rats. […] Therefore, to ensure a steady state condition, rats received I.V. infusion (i.e., infusion solution, 5% DMSO in normal saline; delivery rate, 10 µL/min; infusion rate, 0.31 µg/µL; total dose of LJ-4378, 0.837 mg per rat) for 270 min (i.e., the time exceeding five times the half-life). Blood samples (~ 150 µL) were collected from the animal at every 10 min from 240 to 270 min for the confirmation of the steady state of the compound. At completion of the last blood collection, rats were sacrificed by decapitation, and four representative tissues (i.e., gonadal adipose, brain, lung, and liver) were harvested. Tissues were then washed four times with ice-Dulbecco’s phosphate-buffered saline (DPBS), weighed, and homogenized in two volumes of DPBS using an Ultra Turrax homogenizer (IKA, Staufen, Germany). Aliquots (50 µL) of plasma and tissue homogenate were mixed with 200 µL ice-cold acetonitrile containing propranolol (100 ng/mL, internal standard). After vortex mixing for 10 min, the mixture was centrifuged at 16,100 × g for 5 min at 4 °C, and 10 µL of the supernatant was injected directly onto the HPLC–MS/MS system. The concentration of LJ-4378 in the biological sample was quantified on an Agilent 1200 HPLC coupled to an API 3200 mass spectrometer with a Phenomenex Luna C18(2) column (3 µm, 100 Å, 50 × 2 mm). Chromatography was performed under isocratic conditions with 80% acetonitrile containing 0.1% formic acid (mobile phase A) and 20% water containing 0.1% formic acid (mobile phase B) at a flow rate of 0.4 mL/min.
When calculating KP,T for LJ-4378 in […], Eq. (1) was used:1 KP,T=CT,ss/Cp,ss where CT,ss and Cp,ss represented the tissue and plasma concentrations at 270 min after the initiation of LJ-4378 infusion. In addition, under the free-drug hypothesis, the KP,T can be expressed as the ratio of the unbound fractions in plasma ( fup ) and tissue ( fu,T ) [Eq. (2)]. Given similar interspecies values of tissue unbound fraction (Poulin and Theil [2000]), the rat KP,T values were extrapolated to those in mice and humans using the following Eq. (3):2 KP,T=fup/fu,T 3 KP,T,extrapolated=KP,T,rat×fup/fup,rat

HFD-fed mice = test: Diet-induced obesity model: body weight, body composition, adipose weights, micro-CT; type: in vivo, C57BL/6 J male mice; conditions: for fat mass reduction relative to HFD controls / reduction in total body weight compared to the HFD control group: LJ-4378 1 mg/kg/day I.P., TZP 10 nmol/kg/day S.C.
Protocol: Animal experiments were conducted in accordance with the guidelines approved by the Institutional Animal Care and Use Committees (IACUC) of Seoul National University (SNU-230113–5-2, SNU-250410–1, and SNU-250811–5). C57BL/6 J male mice and Sprague–Dawley (SD) male rats were raised in a controlled animal facility with a temperature of 22 ± 1 °C and subjected to a 12-h light/12-h dark cycle. Mice were randomly assigned to experimental groups and fed either a normal chow diet (NCD, protein: 24.52% calories, carbohydrates: 63.07% calories, fat: 12.41% calories, 38,057, Purina Lab, Seongnam, Republic of Korea) or a high-fat diet (HFD, protein: 20% kcal, carbohydrate: 20% kcal, fat: 60% kcal, New Brunswick, D12492, Research Diets, NJ, USA) for the specified durations, according to group assignment. Both diet and water were provided ad libitum. SD rats (230–240 g) were provided standard rat chow and had free access to water. Prior to the experiment, the rats underwent a 12-h fasting period.
To evaluate the anti-obesity effect in vivo, mice fed either NCD or HFD for 10 weeks were subsequently treated for up to 4 weeks. To control for injection route-related variables, all mice received both intraperitoneal (I.P.) and subcutaneous (S.C.) injections. The administration were as follows: LJ-4378 treated mice received LJ-4378, which was synthesized in our laboratory at > 95% purity (1 mg/kg/day, I.P.) (Hou et al. [2010]; Kim et al. [2022]) along with the vehicle for TZP (40 mM Tris–HCl, pH 8, S.C.); TZP treated mice received TZP (Samms et al. [2021]; Kim et al. [2022]) (LY3298176, MedChemExpress, Monmouth Junction, NJ, USA) (10 nmol/kg/day, S.C.) along with the vehicle for LJ-4378 (0.2% DMSO, I.P.); vehicle control mice received both vehicles (0.2% DMSO, I.P. and 40 mM Tris–HCl, pH 8, S.C.)
Body composition and micro-CT analysis were performed after the treatment with vehicle, LJ-4378, or TZP for the indicated duration in HFD-fed mice and WR mice.
A nuclear magnetic resonance (NMR) technology system with EchoMRI-700 (Echo Medical Systems, […]) was used to analyze body composition.
To assess the abdominal fat volume, we employed the Quantum GX2 micro-CT imaging system (PerkinElmer, Waltham, MA, USA). Mice were anesthetized with isoflurane and positioned on the micro-CT bed for imaging of the abdominal region, defined from the proximal end of the L1 vertebra to the distal end of the L5 vertebra. Imaging was performed at 90 kV/88 µA with a field of view of 72 mm, a pixel size of 90 µm, and a 2-min acquisition time at standard resolution. Visceral, subcutaneous, and total abdominal fat volumes were quantified using AnalyzeDirect software (ver. 12.0, Overland Park, KS, USA).

Plasma stability assay = type: in vitro ADME, rat; conditions: 37 °C, 30 min
Protocol: The plasma stability of LJ-4378 was evaluated using 100% plasma obtained from human (Biochemed, BC22089NCP, sodium citrate), rat (Innovative, IRT-N, sodium citrate), and mouse (Biochemed, 029-APSC-MP, sodium citrate). 10 Μm of LJ-4378 was added to the plasma, and samples were incubated at 37 °C for 0, 30, and 120 min. At each time point, an aliquot of the plasma was removed and mixed with acetonitrile containing the internal standard, chlorpropamide (TRC, C424800). […] The supernatant was injected into the LC–MS/MS system for quantification of the remaining compound. Analysis was performed using a Nexera XR system (Shimadzu, Japan) with a TSQ Vantage mass spectrometer (Thermo, USA). […] Data acquisition was conducted in MRM mode using Xcalibur software (version 4.4). All experiments were performed in duplicate with a deviation within 15%, and the percentage of compound remaining (% Remaining) at each time point was calculated relative to the non-incubated control sample. For quality control, procaine and enalapril (each at 10 μM) were used as reference compounds and were confirmed to fall within acceptable ranges.

[2] = set-up: method as in Jastreboff et al. [2022]; Sattar et al. [2022]; conditions: over 72 weeks; ref Jastreboff et al. [2022]; Sattar et al. [2022]; cited from earlier work
[3] = SD rats (observed), I.V. infusion 270 min

CCCCC#Cc1nc(N)c2ncn([C@@H]3SC[C@@H](O)[C@H]3O)c2n1 [LJ-4378]
Steady state tissue partition coefficient (KP,T), Adipose [1, 3]: 0.0843 ± 0.00653
Steady state tissue partition coefficient (KP,T), Liver [1, 3]: 0.440 ± 0.194
Steady state tissue partition coefficient (KP,T), Lungs [1, 3]: 0.228 ± 0.0793
partitioning in adipose tissue relative to brain ([1]; SD rats, steady state): over four-fold higher partitioning
fat ratio (% of the total body weight) (HFD-fed mice; 4 weeks of LJ-4378, HFD-fed mice): 20.1%
fat mass reduction relative to HFD controls (HFD-fed mice; 14 days): 30.7%
reduction in total body weight compared to the HFD control group (HFD-fed mice; 14 days): 9.04%
iWAT and gWAT mass (HFD-fed mice; HFD-fed mice, 14 days): significantly reduced
visceral and subcutaneous abdominal fat (micro-CT) (HFD-fed mice; HFD-fed mice, 14 days): reduction
reduction in body weight (HFD-fed mice; four weeks of LJ-4378 administration, HFD-fed mice): 15.5%
% Remaining compound, Rat plasma 30 min (Plasma stability assay): > 100%

Tirzepatide [TZP, reference compound]
weight reductions in clinical studies [2]: up to 22.5%
fat ratio (% of the total body weight) (HFD-fed mice; 2 weeks of TZP treatment, HFD-fed mice): 27.4%
fat mass reduction relative to HFD controls (HFD-fed mice; 14 days): 32.4%
reduction in total body weight compared to the HFD control group (HFD-fed mice; 14 days): 18.63%
brown adipose tissue (BAT) mass (HFD-fed mice; HFD-fed mice, 14 days): reduced
iWAT and gWAT mass (HFD-fed mice; HFD-fed mice, 14 days): significantly reduced
visceral and subcutaneous abdominal fat (micro-CT) (HFD-fed mice; HFD-fed mice, 14 days): reduction
